Measurements reported in PMC3175016 (Journal of applied toxicology : JAT, 2011).
Like-named read-outs stand apart in the source and are kept apart here. Marks after values point to notes of the source that are not given here.

Assays:
male Fischer 344 rats [1] = experiment: Six-hour urine protein content after a single i.p. dose; assay type: in vivo; conditions: i.p. in corn oil, mean ± SE, N = 3–4
male Fischer 344 rats [2] = experiment: Kidney weight 24 h after a single i.p. dose; assay type: in vivo; conditions: i.p. in corn oil, mean ± SE, N = 3–4
male Fischer 344 rats [3] = experiment: Liver weight 24 h after a single i.p. dose; assay type: in vivo; conditions: i.p. in corn oil, mean ± SE, N = 3–4
male Fischer 344 rats [4] = experiment: Kidney histology; assay type: in vivo; conditions: all doses evaluated, i.p., 24 h, vs corn oil
male Fischer 344 rats [5] = experiment: Serum alanine aminotransferase; assay type: in vivo; conditions: 24 h; for serum alanine aminotransferase (ALT) activity: corn oil controls 36.0 ± 11.3
male Fischer 344 rats [6] = experiment: Liver histology; assay type: in vivo; conditions: 24 h
male Fischer 344 rats [7] = experiment: Urine volume after a single i.p. dose; assay type: in vivo; conditions: for Twenty-four-hour urine volume: i.p. in corn oil, mean ± SE, N = 3–4
male Fischer 344 rats [8] = experiment: Blood urea nitrogen; assay type: in vivo; conditions: for Blood urea nitrogen: i.p. in corn oil, 24 h, mean ± SE, N = 3–4
male Fischer 344 rats [9] = conditions: ref Patel et al., 2008, cited from earlier work
[10] = dose 0.2 (head mg/kg; text mmol/kg)
[11] = dose 0.4 (head mg/kg; text mmol/kg)
[12] = dose 0.6 (head mg/kg; text mmol/kg)
[13] = dose 1.0 (head mg/kg; text mmol/kg)
[14] = all four doses (0.2, 0.4, 0.6, 1.0 mmol/kg) i.p., vs corn oil
[15] = all doses (0.2–1.0 mmol/kg) i.p.

Structure (SMILES) | Six-hour urine protein content (male Fischer 344 rats [1]; [10]) | Six-hour urine protein content (male Fischer 344 rats [1]; [11]) | Six-hour urine protein content (male Fischer 344 rats [1]; [12]) | Six-hour urine protein content (male Fischer 344 rats [1]; [13]) | Kidney weight (male Fischer 344 rats [2]; [10]) | Kidney weight (male Fischer 344 rats [2]; [11]) | Kidney weight (male Fischer 344 rats [2]; [12]) | Kidney weight (male Fischer 344 rats [2]; [13]) | Liver weight (male Fischer 344 rats [3]; [10]) | Liver weight (male Fischer 344 rats [3]; [11]) | Liver weight (male Fischer 344 rats [3]; [12]) | Liver weight (male Fischer 344 rats [3]; [13]) | Kidney morphology (male Fischer 344 rats [4]) | Twenty-four-hour urine volume (male Fischer 344 rats [7]; [10]) | Twenty-four-hour urine volume (male Fischer 344 rats [7]; [11]) | Twenty-four-hour urine volume (male Fischer 344 rats [7]; [12]) | Twenty-four-hour urine volume (male Fischer 344 rats [7]; [13]) | Blood urea nitrogen (male Fischer 344 rats [8]; [10]) | Blood urea nitrogen (male Fischer 344 rats [8]; [11]) | Blood urea nitrogen (male Fischer 344 rats [8]; [12]) | further results
CC1SC(=O)N(c2cc(Cl)cc(Cl)c2)C1=O (stereo not shown) [DPMT, 3-(3,5-dichlorophenyl)-5-methyl-2,4-thiazolidinedione] | 2.1 ± 0.7^a mg | 1.6 ± 0.1^a mg | 2.6 ± 0.8^a mg | 2.5 ± 0.3^a mg | 0.37 ± 0.01^a g/ 100% BW | 0.38 ± 0.01^a g/ 100% BW | 0.39 ± 0.01^a g/ 100% BW | 0.41 ± 0.01^a g/ 100% BW | 3.67 ± 0.31^a g/100% BW | 3.81 ± 0.22^a g/100% BW | 4.03 ± 0.27^a g/100% BW | 4.10 ± 0.07^a g/100% BW | did not exhibit obvious changes in kidney morphology | 6.5 ± 2.1^a ml | 8.1 ± 1.7^a ml | 11.6 ± 1.0*,^a ml | 10.8 ± 1.3*,^a ml | 19.6 ± 0.8^a mg/dl | 24.6 ± 1.3^a mg/dl | 19.8 ± 2.8^a mg/dl | serum alanine aminotransferase (ALT) activity (male Fischer 344 rats [5]; 0.6 mmol/kg i.p. in corn oil): 298.6 ± 176.1 Sigma-Frankel units/ml; serum alanine aminotransferase (ALT) activity (male Fischer 344 rats [5]; 1.0 mmol/kg i.p. in corn oil): 327.3 ± 102.9 Sigma-Frankel units/ml; Change in serum ALT levels (male Fischer 344 rats [5]; 0.6 and 1.0 mmol/kg i.p., vs two lower doses and corn oil): significant elevation in ALT concentrations; Liver morphology (male Fischer 344 rats [6]; 0.6 mmol/kg i.p.): some damage near the centrilobular vein; Liver morphology (male Fischer 344 rats [6]; 1.0 mmol/kg i.p.): more damaged hepatocytes; Liver morphology (male Fischer 344 rats [6]; 0.2 and 0.4 mmol/kg i.p.): did not show any noticeable changes in liver morphology; Increase in urine volume (male Fischer 344 rats [7]; 0.6 and 1.0 mmol/kg): about three-fold increase; Blood urea nitrogen (male Fischer 344 rats [8]; [13]): 20.0 ± 2.2^a mg/dl
O=C1CSC(=O)N1c1ccc(Cl)cc1 [CPTD, 3-(4-chlorophenyl)-2,4-thiazolidinedione] | 2.0 ± 0.1^c mg | 1.9 ± 0.1^c mg | 2.0 ± 0.1^c mg | 1.9 ± 0.1^c mg | 0.39 ± 0.02^b g/ 100% BW | 0.41 ± 0.01^b g/ 100% BW | 0.46 ± 0.02*,^c g/ 100% BW | 0.51 ± 0.04*,^c g/ 100% BW | 3.62 ± 0.16^c g/100% BW | 3.84 ± 0.07^c g/100% BW | 4.36 ± 0.06*,^d g/100% BW | 3.98 ± 0.14*,^c g/100% BW | minor swelling in some proximal tubular cells | 5.7 ± 1.5^b ml | 12.4 ± 4.6*,^c ml | 16.6 ± 0.8*,^c ml | 15.3 ± 2.7*,^c ml | 37.9 ± 0.6*,^c mg/dl | 38.1 ± 1.7*,^c mg/dl | 40.4 ± 2.7*,^c mg/dl | serum alanine aminotransferase (ALT) activity (male Fischer 344 rats [5]; 1.0 mmol/kg i.p. in corn oil): 1622.5 ± 218.5 Sigma-Frankel units/ml; Change in serum ALT levels (male Fischer 344 rats [5]; [14]): significantly elevated; Liver morphology (male Fischer 344 rats [6]; 1.0 mmol/kg i.p.): signs of liquefactive necrosis; Liver morphology (male Fischer 344 rats [6]; [15]): necrotic lesions with acute inflammatory response; Increase in BUN levels (male Fischer 344 rats [8]; all dosages, compared to corn oil controls): 1.8 fold; Blood urea nitrogen (male Fischer 344 rats [8]; [13]): 34.9 ± 1.8*,^c mg/dl
O=C1CSC(=O)N1c1cc(C(F)(F)F)cc(C(F)(F)F)c1 [DFMPT, 3-[3,5-bis(trifluoromethyl)phenyl]-2,4-thiazolidinedione] | 1.1 ± 0.3^e mg | 1.6 ± 0.2^e mg | 1.5 ± 0.2^e mg | 1.0 ± 0.2^e mg | 0.40 ± 0.01^g g/ 100% BW | 0.42 ± 0.03^g g/ 100% BW | 0.30 ± 0.09^g g/ 100% BW | 0.48 ± 0.01*,^h g/ 100% BW | 3.82 ± 0.12^f g/100% BW | 3.59 ± 0.10^f g/100% BW | 3.78 ± 0.07^f g/100% BW | 4.05 ± 0.15*,^f g/100% BW | minor swelling in some proximal tubular cells | 10.1 ± 1.3*,^f ml | 14.1 ± 2.6*,^f,^g ml | 20.0 ± 3.1*,^g,^h ml | 23.5 ± 1.8*,^h ml | 19.6 ± 0.5^e mg/dl | 21.7 ± 0.4^e mg/dl | 22.5 ± 0.5^e mg/dl | Change in serum ALT levels (male Fischer 344 rats [5]; [14]): normal; Liver morphology (male Fischer 344 rats [6]; [15]): did not show any noticeable changes in morphology; Blood urea nitrogen (male Fischer 344 rats [8]; [13]): 32.7 ± 1.4*,^f mg/dl
O=C1CSC(=O)N1c1ccccc1 [PTZD, 3-phenyl-2,4-thiazolidinedione] | 2.1 ± 0.5^d mg | 2.1 ± 0.2^d mg | 3.4 ± 0.9^d mg | 2.3 ± 0.6^d mg | 0.36 ± 0.01^d g/ 100% BW | 0.40 ± 0.00*,^e g/ 100% BW | 0.41 ± 0.01*,^e g/ 100% BW | 0.47 ± 0.01 *,^f g/ 100% BW | 3.69 ± 0.25^e g/100% BW | 3.68 ± 0.18^e g/100% BW | 4.08 ± 0.08^e g/100% BW | 4.24 ± 0.06*,^e g/100% BW | dilation of distal tubules and collecting tubules | 6.1 ± 1.7^d ml | 11.5 ± 3.2^d ml | 12.5 ± 2.4^d ml | 22.6 ± 0.4*,^e ml | 24.8 ± 1.9^d mg/dl | 24.1 ± 0.9^d mg/dl | 28.6 ± 2.0*,^d mg/dl | Change in serum ALT levels (male Fischer 344 rats [5]; 0.2 mmol/kg i.p., vs corn oil): did not produce a significant change; ALT elevation compared to corn oil controls (male Fischer 344 rats [5]; 0.4 mmol/kg i.p.): approximately 7 fold; ALT elevation compared to corn oil controls (male Fischer 344 rats [5]; 0.6 mmol/kg i.p.): ~26 fold; serum alanine aminotransferase (ALT) activity (male Fischer 344 rats [5]; 1.0 mmol/kg i.p. in corn oil): 1196.2 ± 133.6 Sigma-Frankel units/ml; ALT elevation compared to corn oil controls (male Fischer 344 rats [5]; 1.0 mmol/kg i.p.): ~33 fold; Liver morphology (male Fischer 344 rats [6]; 0.2 mmol/kg i.p.): did not show any signs of hepatic damage; Liver morphology (male Fischer 344 rats [6]; 0.4 mmol/kg i.p.): some damage with granular and irregularly stained cytoplasm and indistinct nuclei; Liver morphology (male Fischer 344 rats [6]; 1.0 mmol/kg i.p.): larger necrotic lesions were present and an acute inflammatory response occurred; Blood urea nitrogen (male Fischer 344 rats [8]; [13]): 31.3 ± 2.4*,^d mg/dl
O=C1SCCN1c1cc(Cl)cc(Cl)c1 [2-DCTD, 3-(3,5-dichlorophenyl)-2-thiazolidinone] | 1.6 ± 0.4^d mg | 1.8 ± 0.1^d mg | 2.2 ± 0.1^d mg | 2.0 ± 0.1^d mg | 0.39 ± 0.01^e g/ 100% BW | 0.38 ± 0.01^e g/ 100% BW | 0.40 ± 0.01^e g/ 100% BW | 0.37 ± 0.01^e g/ 100% BW | 3.96 ± 0.10^d g/100% BW | 3.71 ± 0.11^d g/100% BW | 3.74 ± 0.11^d g/100% BW | 3.85 ± 0.15^d g/100% BW | did not produce any noticeable changes in the kidney morphology | 6.0 ± 0.8^d ml | 4.3 ± 0.3^d ml | 5.0 ± 0.7^d ml | 4.4 ± 1.3^d ml | 23.0 ± 1.2^g mg/dl | 22.3 ± 1.1^g mg/dl | 23.9 ± 0.9^g mg/dl | Change in serum ALT levels (male Fischer 344 rats [5]; [14]): did not exhibit any significant changes in serum ALT levels; Liver morphology (male Fischer 344 rats [6]; [15]): generally normal, although some nuclear condensation was evident; Blood urea nitrogen (male Fischer 344 rats [8]; [13]): 24.4 ± 0.7^g mg/dl
O=C1CSC(=O)N1c1cc(Cl)cc(Cl)c1 [DCPT, 3-(3,5-dichlorophenyl)-2,4-thiazolidinedione] |  |  |  |  |  |  |  |  |  |  |  |  |  |  |  |  |  |  |  |  | ALT values (male Fischer 344 rats [9]; 0.2 mmol/kg): 26.7 ± 6.6 SF units/ml; ALT values (male Fischer 344 rats [9]; 0.4 mmol/kg): 231.5 ± 50.0 SF units/ml; ALT values (male Fischer 344 rats [9]; 0.6 mmol/kg): 281.7 ± 103.0 SF units/ml; ALT values (male Fischer 344 rats [9]; 1.0 mmol/kg): 506.9 ± 99.4 SF units/ml
